Molecular target: Glutamate receptor 2 (Homo sapiens, UniProt P42262)
Assay: Positive allosteric modulation of GluA2Q flop isoform (unknown origin) expressed in HEK293 cells assessed as increase in L-glutamate induced calcium flux after 1 hr by fluo-4AM dye-based fluorescence assay

Glutamate receptor 2, sequence (P42262 whole entry, canonical isoform): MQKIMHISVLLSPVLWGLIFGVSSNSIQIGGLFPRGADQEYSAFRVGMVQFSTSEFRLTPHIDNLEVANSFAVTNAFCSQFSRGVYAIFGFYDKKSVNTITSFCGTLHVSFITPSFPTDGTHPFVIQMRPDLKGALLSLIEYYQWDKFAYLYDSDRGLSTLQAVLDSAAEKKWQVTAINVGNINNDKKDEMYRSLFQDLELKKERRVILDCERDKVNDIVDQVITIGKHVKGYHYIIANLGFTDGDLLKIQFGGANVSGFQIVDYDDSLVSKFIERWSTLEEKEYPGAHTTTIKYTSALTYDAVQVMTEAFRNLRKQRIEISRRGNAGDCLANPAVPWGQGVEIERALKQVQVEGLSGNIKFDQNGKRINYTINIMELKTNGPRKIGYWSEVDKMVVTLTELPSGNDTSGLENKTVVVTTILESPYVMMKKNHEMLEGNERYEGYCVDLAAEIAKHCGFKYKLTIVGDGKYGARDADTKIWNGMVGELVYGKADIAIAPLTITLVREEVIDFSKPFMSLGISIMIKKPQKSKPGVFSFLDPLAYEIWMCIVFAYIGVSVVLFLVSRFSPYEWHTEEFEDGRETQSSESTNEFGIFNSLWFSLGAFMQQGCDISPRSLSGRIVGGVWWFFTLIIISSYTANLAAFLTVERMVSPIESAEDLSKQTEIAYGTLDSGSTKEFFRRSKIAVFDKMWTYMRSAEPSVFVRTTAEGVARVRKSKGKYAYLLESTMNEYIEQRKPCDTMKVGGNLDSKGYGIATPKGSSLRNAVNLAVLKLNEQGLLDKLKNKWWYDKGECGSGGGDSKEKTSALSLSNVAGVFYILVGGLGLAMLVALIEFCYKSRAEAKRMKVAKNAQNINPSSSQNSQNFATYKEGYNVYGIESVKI

SMILES: O=S1(=O)NCN(C2CC2)c2cc(CCc3ccc4c(c3)N(C3CC3)CNS4(=O)=O)ccc21
- EC50: 1.3 nM

— BindingDB's records for doi:10.1021/acs.jmedchem.8b00250 (University of Liege, 2018)
